From patent publication US10626081B2, “Farnesoid X receptor agonists and uses thereof” (Metacrine, Inc., priority 2015, dated 2020) come the findings set out here.

The target of assay [1] is T1, FXR (Homo sapiens, UniProt Q96RI1).
T1 construct: expressed in transfected cells; host or cells: CV-1 cells
T1 sequence (Q96RI1 1-486): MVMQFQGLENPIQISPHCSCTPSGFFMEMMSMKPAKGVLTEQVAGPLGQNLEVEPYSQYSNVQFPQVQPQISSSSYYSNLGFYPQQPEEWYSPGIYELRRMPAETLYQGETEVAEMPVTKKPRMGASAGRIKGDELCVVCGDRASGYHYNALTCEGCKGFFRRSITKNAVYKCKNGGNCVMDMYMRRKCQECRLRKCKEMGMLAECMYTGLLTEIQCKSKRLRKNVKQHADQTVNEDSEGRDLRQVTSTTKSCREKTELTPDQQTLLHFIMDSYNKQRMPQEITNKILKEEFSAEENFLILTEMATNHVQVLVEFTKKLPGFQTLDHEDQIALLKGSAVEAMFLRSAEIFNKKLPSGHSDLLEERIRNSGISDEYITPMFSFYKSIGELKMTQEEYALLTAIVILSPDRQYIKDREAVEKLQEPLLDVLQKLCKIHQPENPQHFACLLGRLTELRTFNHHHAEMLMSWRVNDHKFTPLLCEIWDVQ
T1 sequence (P19793 1-462 partner): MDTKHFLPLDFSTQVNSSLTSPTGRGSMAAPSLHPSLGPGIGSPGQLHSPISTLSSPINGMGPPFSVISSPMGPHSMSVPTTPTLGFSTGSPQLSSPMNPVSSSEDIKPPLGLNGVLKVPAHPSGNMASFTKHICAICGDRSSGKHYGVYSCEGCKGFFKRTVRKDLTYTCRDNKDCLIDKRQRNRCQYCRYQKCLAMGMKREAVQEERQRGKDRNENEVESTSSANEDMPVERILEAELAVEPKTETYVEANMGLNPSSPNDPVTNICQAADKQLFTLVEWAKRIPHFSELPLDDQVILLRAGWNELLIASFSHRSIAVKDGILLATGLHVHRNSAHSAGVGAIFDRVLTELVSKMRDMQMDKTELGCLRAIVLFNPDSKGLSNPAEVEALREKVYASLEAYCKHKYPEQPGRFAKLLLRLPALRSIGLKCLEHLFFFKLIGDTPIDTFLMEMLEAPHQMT
Put plainly: In Vitro FXR Assay (PGL3): luciferase reporter in transfected CV-1 cells. The format is cell-based. The following applies: CV-1 cells transfected with hFXR, hRXR, PGL3-ECRE*6-luc; 18 h incubation; luminescence. The procedure: Example B-1: In Vitro FXR Assay (PGL3)
CV-1 cells were seeded at a density of 2,000,000 cells in a T175 flask with DMEM+10% charcoal double-stripped FBS and incubated at 37° C. in a 5% CO2 for 18 h (O/N).
After 18 h of incubation, the medium in the T175 flask was changed with fresh DMEM+10% charcoal super-stripped serum.
To prepare the transfection reaction mixture, the transfection reagent (X-tremeGENE HP from Roche, Cat #06 366 236 001) was added in to a 1.5 mL microcentrifuge tube labelled “A” at a ratio of 1:3 (DNA in transfection reagent in μL). OptiMEM medium (Life Technologies, Cat #31985-062) was added accordingly to provide a total volume of 1 mL. The transfection reaction mixture was then briefly vortexed and incubated at room temperature for 5 minutes.
In a separate 1.5 mL microcentrifuge tube labelled “B”, 100 μL OptiMEM and plasmids XPD90Gal pCMXhFXRfl, pCMXhRXRfl+PGL3-ECRE*6-luc+CMX-YFP in the ratio 2 μg:2 μg:18 μg:3 μg were added. This microcentrifuge tube “B” was then briefly vortexed and incubated at room temperature for 5 minutes.
The total volume in tube labelled “A” was then transferred in to tube labelled “B.” The mixture was then briefly vortexed and the transfection:DNA complex was then incubated for about 15-20 minutes at room temperature.
Following incubation, the transfection reagent/DNA mixture complex was then added to cells in the T175 flask and the cells were incubated at […] (O/N) at 37° C. in 5% CO2.
In a 96 well plate, a half logarithmic serial dilution was prepared. OptiMEM was used as the diluent. Using any of one of the compounds described herein, a compound stock solution of 10 mM was prepared. An initial 1:100 dilution was made into the first well for a final concentration of 100 μM. The final concentrations in the 96-well plate was prepared by using a multichannel pipette to transfer 5 μL of the diluted compound to 384-well plate in quadruplicate.
Cells in T175 flask were trypsinized and cells were resuspended in 40 mL phenol red free DMEM+10% charcoal super-stripped FBS. Typically, one T175 flask was sufficient to seed two 384 well plates. CV-1 cells were seeded at 45 μL cell suspension/well using a multi-channel pipet or a 384 multidrop dispenser. The cells were then incubated for 18 hrs, overnight.
After removing the plates from the incubator, the medium was flicked out of plate and 384 well plate was turned upside down onto paper towel. The remaining medium was gently tapped out. 15 μL lysis buffer was then added to each well using a multichannel pipet or a 384 well multi-drop dispenser. After incubation for 10 minutes at room temperature on shaker, 30 μL Luciferase buffer was added to each well. Luminescence counts were taken immediately using the Perkin Elmer Envision.
The ability of the compounds disclosed herein to […] FXR activity was quantified and the respective EC50 value was determined. Fex=fexaramine.
For orientation: A reporter such as luciferase makes a cellular process visible.

The target in assay [2] is T1, FXR. Put plainly: In Vitro FXR Assay (TK): TK-ECRE-luc reporter in transfected CV-1 cells. It is filed as cell-based. The following applies: CV-1 cells transfected with hFXR, hRXR, 18 h incubation, luminescence. The essentials:
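CV-1 cells in charcoal-stripped FBS medium were transiently cotransfected with hFXR, hRXR, TK-ECRE-luc and pCMX-YFP plasmids. After 18 h, compounds serially diluted in DMSO were added for 18 h at 37 °C, 5% CO2, then cells were lysed and luminescence read.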

As usually defined, the EC50 is the concentration that produces a half-maximal response. A low value points to higher potency in that assay.

With `COC(=O)/C=C/c1cccc(N(Cc2ccc(-c3ccc(N(C)C)cc3)cc2)C(=O)C(C)(C)C)c1` [compound 1, (E)-Methyl 3-(3-(N-((4′-(dimethylamino)-[1,1′-biphenyl]-4-yl)methyl)pivalamido)phenyl)acrylate], the “Cmpd/Fex (ratio of the EC50 for the test compound relative to the EC50 of the Fexaramine control)” value on FXR [1] is given as “+++ (‘+++’ means Cmpd/Fex < 10)”. In addition, the EC50 on FXR [2] lay within 1000 to 10000 nM.

For the molecule `CCCC(=O)N(Cc1ccc(-c2ccc(N(C)C)cc2)cc1)c1cccc(/C=C/C(=O)OC)c1` [compound 2, (E)-Methyl 3-(3-(N-((4′-(dimethylamino)-[1,1′-biphenyl]-4-yl)methyl)butyramido)phenyl)acrylate], on FXR [1], the “Cmpd/Fex (ratio of the EC50 for the test compound relative to the EC50 of the Fexaramine control)” value is “++ (‘++’ means Cmpd/Fex > 10 & < 100)”. The molecule also gave a concentration for a half-maximal effect (EC50) on FXR [2] of 1000 to 10000 nM.

With `CCOC(=O)N(Cc1ccc(-c2ccc(N(C)C)cc2)cc1)c1cccc(/C=C/C(=O)OC)c1` [compound 3, (E)-Methyl 3-(3-(((4′-(dimethylamino)-[1,1′-biphenyl]-4-yl)methyl)(ethoxycarbonyl)amino)phenyl)acrylate], the “Cmpd/Fex (ratio of the EC50 for the test compound relative to the EC50 of the Fexaramine control)” value on FXR [1] is on record as “++ (‘++’ means Cmpd/Fex > 10 & < 100)”. At FXR [2], the 50% effective concentration (EC50) fell in the range of 1000 to 10000 nM.

Consider `COC(=O)/C=C/c1cccc(N(Cc2ccc(-c3ccc(N(C)C)cc3)cc2)C(=O)c2ccc(C#N)cc2)c1` [compound 4, (E)-Methyl 3-(3-(4-cyano-N-((4′-(dimethylamino)-[1,1′-biphenyl]-4-yl)methyl)benzamido)phenyl)acrylate], for which, at FXR [1], the “Cmpd/Fex (ratio of the EC50 for the test compound relative to the EC50 of the Fexaramine control)” value is “+++ (‘+++’ means Cmpd/Fex < 10)”. At FXR [2], this molecule gave a half-maximal effective concentration (EC50) of 1000 to 10000 nM.

Consider `COC(=O)/C=C/c1cccc(N(Cc2ccc(-c3ccc(N(C)C)cc3)cc2)C(=O)C2CCOCC2)c1` [compound 5, (E)-Methyl 3-(3-(N-((4′-(dimethylamino)-[1,1′-biphenyl]-4-yl)methyl)tetrahydro-2H-pyran-4-carboxamido)phenyl)acrylate], for which the “Cmpd/Fex (ratio of the EC50 for the test compound relative to the EC50 of the Fexaramine control)” value on FXR [1] is “+++ (‘+++’ means Cmpd/Fex < 10)”. Besides, the concentration for a half-maximal effect (EC50) on FXR [2] is at most 1000 nM.

As for `COC(=O)/C=C/c1cccc(N(Cc2ccc(-c3ccc(N(C)C)cc3)cc2)C(=O)C2COC2)c1` [compound 6, (E)-Methyl 3-(3-(N-((4′-(dimethylamino)-[1,1′-biphenyl]-4-yl)methyl)oxetane-3-carboxamido)phenyl)acrylate], the “Cmpd/Fex (ratio of the EC50 for the test compound relative to the EC50 of the Fexaramine control)” value at FXR [1] is given as “++ (‘++’ means Cmpd/Fex > 10 & < 100)”. At FXR [2], this molecule had a half-maximal effective concentration (EC50) of 1000 to 10000 nM.

Turning to `COC(=O)/C=C/c1cccc(N(Cc2ccc(-c3ccc(N(C)C)cc3)cc2)C(=O)CC(C)(C)C)c1` [compound 7, (E)-Methyl 3-(3-(N-((4′-(dimethylamino)-[1,1′-biphenyl]-4-yl)methyl)-3,3-dimethylbutanamido)phenyl)acrylate], the “Cmpd/Fex (ratio of the EC50 for the test compound relative to the EC50 of the Fexaramine control)” value on FXR [1] is “+++ (‘+++’ means Cmpd/Fex < 10)”. In addition, on FXR [2], the EC50 was at most 1000 nM.

Regarding `COC(=O)/C=C/c1cccc(N(Cc2ccc(-c3ccc(N(C)C)cc3)cc2)C(=O)[C@H]2CC[C@@H](OC)CC2)c1` [compound 8, (E)-Methyl 3-(3-((1r,4r)-N-((4′-(dimethylamino)-[1,1′-biphenyl]-4-yl)methyl)-4-methoxycyclohexanecarboxamido)phenyl)acrylate], the “Cmpd/Fex (ratio of the EC50 for the test compound relative to the EC50 of the Fexaramine control)” value at FXR [1] is given as “+++ (‘+++’ means Cmpd/Fex < 10)”. Also, the 50% effective concentration (EC50) on FXR [2] was at most 1000 nM.

`COC(=O)/C=C/c1cccc(N(Cc2ccc(-c3ccc(N(C)C)cc3)cc2)C(=O)[C@H]2CC[C@H](OC)CC2)c1` [compound 9, (E)-Methyl 3-(3-((1s,4s)-N-((4′-(dimethylamino)-[1,1′-biphenyl]-4-yl)methyl)-4-methoxycyclohexanecarboxamido)phenyl)acrylate]: on FXR [1], the “Cmpd/Fex (ratio of the EC50 for the test compound relative to the EC50 of the Fexaramine control)” value is given as “+++ (‘+++’ means Cmpd/Fex < 10)”. The EC50 on FXR [2] is at most 1000 nM.

Turning to `COC(=O)/C=C/c1cccc(N(Cc2ccc(-c3ccc(N(C)C)cc3)cc2)C(=O)c2ccc(OC)cc2)c1` [compound 10, (E)-Methyl 3-(3-(N-((4′-(dimethylamino)-[1,1′-biphenyl]-4-yl)methyl)-4-methoxybenzamido)phenyl)acrylate], the “Cmpd/Fex (ratio of the EC50 for the test compound relative to the EC50 of the Fexaramine control)” value at FXR [1] was “+++ (‘+++’ means Cmpd/Fex < 10)”. The same molecule returned an EC50 on FXR [2] of 1000 to 10000 nM.

For the molecule `COC(=O)/C=C/c1cccc(N(Cc2ccc(-c3ccc(N(C)C)cc3)cc2)C(=O)C2CCCCCC2)c1` [compound 11, (E)-Methyl 3-(3-(N-((4′-(dimethylamino)-[1,1′-biphenyl]-4-yl)methyl)cycloheptanecarboxamido)phenyl)acrylate], the “Cmpd/Fex (ratio of the EC50 for the test compound relative to the EC50 of the Fexaramine control)” value at FXR [1] is recorded as “+++ (‘+++’ means Cmpd/Fex < 10)”. This molecule had a concentration for a half-maximal effect (EC50) on FXR [2] of at most 1000 nM.

`COC(=O)/C=C/c1cccc(N(Cc2ccc(-c3ccc(N(C)C)cc3)cc2)C(=O)C23CC4CC(CC(C4)C2)C3)c1` [compound 12, (E)-Methyl 3-(3-(-N-((4′-(dimethylamino)-[1,1′-biphenyl]-4-yl)methyl)adamantane-1-carboxamido)phenyl)acrylate]: the “Cmpd/Fex (ratio of the EC50 for the test compound relative to the EC50 of the Fexaramine control)” value on FXR [1] is given as “+++ (‘+++’ means Cmpd/Fex < 10)”. Moreover, the EC50 on FXR [2] was 1000 to 10000 nM.

As for `COC(=O)/C=C/c1cccc(N(Cc2ccc(C3CCCCC3)cc2)C(=O)C2CCCCC2)c1` [compound 13, (E)-methyl 3-(3-(N-(4-cyclohexylbenzyl)cyclohexanecarboxamido)phenyl)acrylate], the “Cmpd/Fex (ratio of the EC50 for the test compound relative to the EC50 of the Fexaramine control)” value at FXR [1] is “+ (‘+’ means Cmpd/Fex > 100)”. This molecule returned a 50% effective concentration (EC50) at FXR [2] above 10000 nM.

As to `COC(=O)/C=C/c1cccc(N(Cc2ccc(-c3ccc(N(C)C)cc3)cc2)C(=O)C2CCCC2)c1` [compound 14, (E)-Methyl 3-(3-(N-((4′-(dimethylamino)-[1,1′-biphenyl]-4-yl)methyl)cyclopentanecarboxamido)phenyl)acrylate], the “Cmpd/Fex (ratio of the EC50 for the test compound relative to the EC50 of the Fexaramine control)” value at FXR [1] is recorded as “+++ (‘+++’ means Cmpd/Fex < 10)”. Besides, the EC50 on FXR [2] is at most 1000 nM.

As to `COC(=O)/C=C/c1cccc(N(Cc2ccc(-c3ccc(N(C)C)cc3)cc2)C(=O)C2CCC2)c1` [compound 15, (E)-Methyl 3-(3-(N-((4′-(dimethylamino)-[1,1′-biphenyl]-4-yl)methyl)cyclobutanecarboxamido)phenyl) acrylate], the “Cmpd/Fex (ratio of the EC50 for the test compound relative to the EC50 of the Fexaramine control)” value on FXR [1] is listed as “+++ (‘+++’ means Cmpd/Fex < 10)”. The EC50 at FXR [2] lay within 1000 to 10000 nM.
